Results as given in patent US11207310B2 (PRILENIA NEUROTHERAPEUTICS LTD., priority 2016, dated 2021).
Read-outs that look alike come from different tables or passages of the source.

What was measured:
patients with HD [1] = details: OPEN-HART; for mean change from baseline in TFC: open-label pridopidine 90 mg/day, mean (SD)
From the text: Patients with HD experience motor, cognitive and behavioral symptoms that lead to serious, long-term disability. TFC (range 0-13, high scores indicate greater capacity) evaluates patients' capacity to work, handle finances and domestic chores, perform activities of daily living and live independently, and is most sensitive to early changes in disability. TFC was utilized in OPEN-HART and the Coenzyme Q10 studies, CARE-HD and 2CARE.
For this analysis, TFC scores at baseline, 12, 24, and 36 months from OPEN-HART and 2CARE, and TFC scores at baseline, 12, 25, and 30 months from CARE were utilized.

patients with HD [2] = details: week 52
From the text: Motor deficits can be objectively assessed using different Q-Motor assessments. All Q-Motor assessments are based on the application of precalibrated and temperature controlled force transducers and 3-dimensional position sensors with very high sensitivity and test-retest reliability across sessions and sites in a multicenter clinical study. Q-Motor measures thus aim to reduce the limited sensitivity of categorical clinical rating scales, the intra- and inter-rater variability, and placebo effects observed in scales such as UHDRS-TMS. In addition, Q-Motor assessments allow for the objective monitoring of unintended motor side-effects in clinical studies. Thus, Q-Motor is an objective, reliable, and sensitive measure of motor function that is free of rater bias and limits placebo effect influence.
This task assesses the regularity of hand taps performed when alternating between the palm and dorsal surface of the hand performing a repetitive pronation/supination movement. The force and duration of the hand taps are recorded similarly to the speeded tapping task. A tone cues the start and end of an assessment. Five trials of 10 seconds duration are performed with each hand.

patients with HD [3] = details: for PBA Irritability, Severity×Frequency, change from baseline, Wk 52 Δ to placebo: BL TFC≥7
Method: The PBA-s is a brief semi-structured interview covering the most common behavioral and psychiatric manifestations of HD. […] Severity and frequency scores are multiplied to produce an overall ‘PBA score’ for each symptom.
The PBA-s is a brief semi-structured interview covering the most common behavioral and psychiatric manifestations of HD.
The total PBA score is calculated by the sum of all PBA-s scores across symptoms/domains.

neuroblastoma cell line = details: S1R-dependent manner (Geva 2016); cited from earlier work

For CCCN1CCC(c2cccc(S(C)(=O)=O)c2)CC1 [pridopidine, 4-[3-(methylsulfonyl)phenyl]-1-propyl-piperidine], the “mean change from baseline in TFC” value (patients with HD [1]; 12 months) was −0.49 (1.60), the “mean change from baseline in TFC” value (patients with HD [1]; 24 months) was −1.00 (1.92) and the “mean change from baseline in TFC” value (patients with HD [1]; 36 months) was −1.68 (2.22). The “TFC decline over time versus placebo in CARE-HD and 2CARE” value (patients with HD [1]; pridopidine 90 mg/day) was “slower”, the “difference in the rate of functional decline (TFC) versus placebo arms of CARE-HD and 2CARE” value (patients with HD [1]; 12 months, non-matched cohorts) was about 1 point and the “Wk 52 Δ to placebo: Q-Motor Pro-Sup-Frequency-MN-Hand, change from baseline” value (patients with HD [2]; 45 mg bid, FAS) was 0.0599 Hz. The “Wk 52 Δ to placebo: Q-Motor Pro-Sup-Frequency-MN-Hand, change from baseline” value (patients with HD [2]; 45 mg bid, HD1 and HD2 patients) was 0.1195 Hz, the “Wk 52 Δ to placebo: Q-Motor Pro-Sup-Frequency-MN-Hand, change from baseline” value (patients with HD [2]; 67.5 mg bid, FAS) was −0.0124 Hz and the “Wk 52 Δ to placebo: Q-Motor Pro-Sup-Frequency-MN-Hand, change from baseline” value (patients with HD [2]; 67.5 mg bid, HD1 and HD2 patients) was 0.0548 Hz. The “Wk 52 Δ to placebo: Q-Motor Pro-Sup-Frequency-MN-Hand, change from baseline” value (patients with HD [2]; 90 mg bid, FAS) was −0.0087 Hz, the “Wk 52 Δ to placebo: Q-Motor Pro-Sup-Frequency-MN-Hand, change from baseline” value (patients with HD [2]; 90 mg bid, HD1 and HD2 patients) was 0.0575 Hz and the “Wk 52 Δ to placebo: Q-Motor Pro-Sup-Frequency-MN-Hand, change from baseline” value (patients with HD [2]; 112.5 mg bid, FAS) was 0.0127 Hz. The “Wk 52 Δ to placebo: Q-Motor Pro-Sup-Frequency-MN-Hand, change from baseline” value (patients with HD [2]; 112.5 mg bid, HD1 and HD2 patients) was 0.08 Hz, the “Change from baseline in PBA Depressed Mood, Severity×Frequency, Δ to placebo” value (patients with HD [3]; 45 mg bid, Week 26, ALL) was −0.29 and the “PBA Disoriented Behavior, Severity×Frequency, change from baseline, Δ to placebo” value (patients with HD [3]; 45 mg bid, Week 26, ALL, p value 0.2864) was −0.2. For the same molecule, the “PBA Obsessive-Compulsive, Severity×Frequency, change from baseline, Δ to placebo” value (patients with HD [3]; 45 mg bid, Week 26, ALL, p value 0.8081) was 0.1, the “Change from baseline in PBA Depressed Mood, Severity×Frequency, Δ to placebo” value (patients with HD [3]; 45 mg bid, Week 26, Stage 1 BL TFC 11-13) was −0.63 and the “PBA Obsessive-Compulsive, Severity×Frequency, change from baseline, Δ to placebo” value (patients with HD [3]; 45 mg bid, Week 26, Stage 1 BL TFC 11-13, p value 0.0035) was −2.11. The “PBA Disoriented Behavior, Severity×Frequency, change from baseline, Δ to placebo” value (patients with HD [3]; 45 mg bid, Week 26, Stage 1 BL TFC 11-13, p value 0.0381) was −0.19, the “Change from baseline PBA Irritability, Severity×Frequency, Δ to placebo” value (patients with HD [3]; 45 mg bid, Week 52, ALL) was −1.03 and the “PBA Obsessive-Compulsive, Severity×Frequency, change from baseline, Δ to placebo” value (patients with HD [3]; 45 mg bid, Week 52, ALL, p value 0.5733) was −0.24. For the same molecule, the “PBA Irritability, Severity×Frequency, change from baseline, Δ to placebo” value (patients with HD [3]; 45 mg bid, Week 52, BL TFC<7, p value 0.0165) was −2.42, the “PBA Irritability, Severity×Frequency, change from baseline, Wk 52 Δ to placebo” value (patients with HD [3]; 45 mg bid, Week 52, p value 0.1789) was −0.59 and the “PBA Obsessive-Compulsive, Severity×Frequency, change from baseline, Δ to placebo” value (patients with HD [3]; 45 mg bid, Week 52, Stage 1 BL TFC 11-13, p value 0.007) was −2.73. For the same molecule, the “PBA Irritability, Severity×Frequency, change from baseline, Δ to placebo” value (patients with HD [3]; 45 mg bid, Week 52, Stage 3-5 BL TFC 0-6, p value 0.0165) was −2.42, the “Change from baseline in PBA Depressed Mood, Severity×Frequency, Δ to placebo” value (patients with HD [3]; 67.5 mg bid, Week 26, ALL) was −0.65 and the “PBA Disoriented Behavior, Severity×Frequency, change from baseline, Δ to placebo” value (patients with HD [3]; 67.5 mg bid, Week 26, ALL, p value 0.1357) was −0.28. The “PBA Obsessive-Compulsive, Severity×Frequency, change from baseline, Δ to placebo” value (patients with HD [3]; 67.5 mg bid, Week 26, ALL, p value 0.2512) was −0.45, the “Change from baseline in PBA Depressed Mood, Severity×Frequency, Δ to placebo” value (patients with HD [3]; 67.5 mg bid, Week 26, Stage 1 BL TFC 11-13) was −2.01 and the “PBA Obsessive-Compulsive, Severity×Frequency, change from baseline, Δ to placebo” value (patients with HD [3]; 67.5 mg bid, Week 26, Stage 1 BL TFC 11-13, p value 0.0035) was −2.03. The “PBA Disoriented Behavior, Severity×Frequency, change from baseline, Δ to placebo” value (patients with HD [3]; 67.5 mg bid, Week 26, Stage 1 BL TFC 11-13, p value 0.0615) was −0.16, the “Change from baseline PBA Irritability, Severity×Frequency, Δ to placebo” value (patients with HD [3]; 67.5 mg bid, Week 52, ALL) was −0.63 and the “PBA Obsessive-Compulsive, Severity×Frequency, change from baseline, Δ to placebo” value (patients with HD [3]; 67.5 mg bid, Week 52, ALL, p value 0.5068) was −0.28. The “PBA Irritability, Severity×Frequency, change from baseline, Δ to placebo” value (patients with HD [3]; 67.5 mg bid, Week 52, BL TFC<7, p value 0.0429) was −1.78, the “PBA Irritability, Severity×Frequency, change from baseline, Wk 52 Δ to placebo” value (patients with HD [3]; 67.5 mg bid, Week 52, p value 0.466) was −0.33 and the “PBA Obsessive-Compulsive, Severity×Frequency, change from baseline, Δ to placebo” value (patients with HD [3]; 67.5 mg bid, Week 52, Stage 1 BL TFC 11-13, p value 0.0011) was −3.24. The “PBA Irritability, Severity×Frequency, change from baseline, Δ to placebo” value (patients with HD [3]; 67.5 mg bid, Week 52, Stage 3-5 BL TFC 0-6, p value 0.0429) was −1.78, the “Change from baseline in PBA Depressed Mood, Severity×Frequency, Δ to placebo” value (patients with HD [3]; 90 mg bid, Week 26, ALL) was −0.34 and the “PBA Disoriented Behavior, Severity×Frequency, change from baseline, Δ to placebo” value (patients with HD [3]; 90 mg bid, Week 26, ALL, p value 0.607) was −0.09. For the same molecule, the “PBA Obsessive-Compulsive, Severity×Frequency, change from baseline, Δ to placebo” value (patients with HD [3]; 90 mg bid, Week 26, ALL, p value 0.7541) was −0.12, the “Change from baseline in PBA Depressed Mood, Severity×Frequency, Δ to placebo” value (patients with HD [3]; 90 mg bid, Week 26, Stage 1 BL TFC 11-13) was −0.84 and the “PBA Obsessive-Compulsive, Severity×Frequency, change from baseline, Δ to placebo” value (patients with HD [3]; 90 mg bid, Week 26, Stage 1 BL TFC 11-13, p value 0.0251) was −1.71. For the same molecule, the “PBA Disoriented Behavior, Severity×Frequency, change from baseline, Δ to placebo” value (patients with HD [3]; 90 mg bid, Week 26, Stage 1 BL TFC 11-13, p value 0.093) was −0.16, the “Change from baseline PBA Irritability, Severity×Frequency, Δ to placebo” value (patients with HD [3]; 90 mg bid, Week 52, ALL) was −1.01 and the “PBA Obsessive-Compulsive, Severity×Frequency, change from baseline, Δ to placebo” value (patients with HD [3]; 90 mg bid, Week 52, ALL, p value 0.7508) was −0.13. For the same molecule, the “PBA Irritability, Severity×Frequency, change from baseline, Δ to placebo” value (patients with HD [3]; 90 mg bid, Week 52, BL TFC<7, p value 0.0422) was −1.79, the “PBA Irritability, Severity×Frequency, change from baseline, Wk 52 Δ to placebo” value (patients with HD [3]; 90 mg bid, Week 52, p value 0.0311) was −0.95 and the “PBA Obsessive-Compulsive, Severity×Frequency, change from baseline, Δ to placebo” value (patients with HD [3]; 90 mg bid, Week 52, Stage 1 BL TFC 11-13, p value 0.021) was −2.47. The “PBA Irritability, Severity×Frequency, change from baseline, Δ to placebo” value (patients with HD [3]; 90 mg bid, Week 52, Stage 3-5 BL TFC 0-6, p value 0.0422) was −1.79, the “Change from baseline in PBA Depressed Mood, Severity×Frequency, Δ to placebo” value (patients with HD [3]; 112.5 mg bid, Week 26, ALL) was −0.52 and the “PBA Obsessive-Compulsive, Severity×Frequency, change from baseline, Δ to placebo” value (patients with HD [3]; 112.5 mg bid, Week 26, ALL, p value 0.1061) was −0.63. The “PBA Disoriented Behavior, Severity×Frequency, change from baseline, Δ to placebo” value (patients with HD [3]; 112.5 mg bid, Week 26, ALL, p value 0.6771) was −0.08, the “Change from baseline in PBA Depressed Mood, Severity×Frequency, Δ to placebo” value (patients with HD [3]; 112.5 mg bid, Week 26, Stage 1 BL TFC 11-13) was −1.43 and the “PBA Obsessive-Compulsive, Severity×Frequency, change from baseline, Δ to placebo” value (patients with HD [3]; 112.5 mg bid, Week 26, Stage 1 BL TFC 11-13, p value 0.0114) was −1.73. For the same molecule, the “PBA Disoriented Behavior, Severity×Frequency, change from baseline, Δ to placebo” value (patients with HD [3]; 112.5 mg bid, Week 26, Stage 1 BL TFC 11-13, p value 0.0357) was −0.18, the “Change from baseline PBA Irritability, Severity×Frequency, Δ to placebo” value (patients with HD [3]; 112.5 mg bid, Week 52, ALL) was −0.84 and the “PBA Obsessive-Compulsive, Severity×Frequency, change from baseline, Δ to placebo” value (patients with HD [3]; 112.5 mg bid, Week 52, ALL, p value 0.7789) was −0.12. The “PBA Irritability, Severity×Frequency, change from baseline, Δ to placebo” value (patients with HD [3]; 112.5 mg bid, Week 52, BL TFC<7, p value 0.0542) was −1.71, the “PBA Irritability, Severity×Frequency, change from baseline, Wk 52 Δ to placebo” value (patients with HD [3]; 112.5 mg bid, Week 52, p value 0.1927) was −0.6 and the “PBA Obsessive-Compulsive, Severity×Frequency, change from baseline, Δ to placebo” value (patients with HD [3]; 112.5 mg bid, Week 52, Stage 1 BL TFC 11-13, p value 0.005) was −2.73. For the same molecule, the “PBA Irritability, Severity×Frequency, change from baseline, Δ to placebo” value (patients with HD [3]; 112.5 mg bid, Week 52, Stage 3-5 BL TFC 0-6, p value 0.0542) was −1.71 and the “secretion of brain-derived neurotrophic factor (BDNF)” value (neuroblastoma cell line) was “enhances secretion”.
